Assay [1] deals with ITK (Homo sapiens (Human), UniProt Q08881). Description: ITK inhibitor binding potency (LanthaScreen competitive binding assay). Conditions: read-out: ITK Inh. IC50. An outline of the steps:
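TR-FRET tracer displacement: 10 nM GST-ITK, 2 nM Eu-anti-GST, 50 nM tracer-236 in HEPES pH 7.5, MgCl2, 2% DMSO; 11 points, 20 µM–0.34 nM. Run with or without 2 h compound–ITK preincubation before tracer; IC50 by 4-parameter fit of emission ratio.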
For orientation: In TR-FRET formats the signal depends on donor and acceptor labels being close together.

The target in assay [2] is JAK3 (Homo sapiens (Human), UniProt P52333). Description: JAK3 enzyme activity assay (Caliper mobility shift). Conditions: ATP at Km level; read-out: JAK3 Inh. IC50. In kind it is biochemical. An outline of the steps: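 Caliper mobility-shift assay with 2.5 nM JAK3, […] and […] (Km level) in 20 mM HEPES pH 7.5, 10 mM MgCl2, 0.01% BSA, 0.0005% Tween-20, 2% DMSO. 11-point dose-response from […] 0.34 nM; IC50 by 4-parameter logistic fit of product/substrate signal.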
Chain of JAK3 (P52333 781-1124): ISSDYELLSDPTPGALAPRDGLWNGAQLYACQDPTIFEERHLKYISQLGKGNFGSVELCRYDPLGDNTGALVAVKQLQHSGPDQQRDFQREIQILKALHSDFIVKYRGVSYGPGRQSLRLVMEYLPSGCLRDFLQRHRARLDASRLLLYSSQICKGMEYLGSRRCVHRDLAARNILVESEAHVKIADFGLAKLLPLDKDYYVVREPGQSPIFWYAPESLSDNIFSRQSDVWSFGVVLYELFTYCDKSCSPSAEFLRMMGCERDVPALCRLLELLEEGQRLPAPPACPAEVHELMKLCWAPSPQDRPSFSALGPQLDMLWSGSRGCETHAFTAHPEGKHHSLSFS

The subject of assay [3] is ITK phosphorylation of its substrate, PLCγ1, at Y783. Description: ITK target modulation assay (PLCγ1 Y783 phosphorylation, anti-CD3 stimulated Jurkat T cells). The class given is cell-based. Conditions: anti-CD3 Dynabeads stimulation, read-out: PLC-γ Inh. IC50. An outline of the steps: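 Jurkat cells (400,000/well) were preincubated with compound for 1 h at 37 °C (0.1% DMSO final), then stimulated with anti-CD3 Dynabeads (bead:cell 2:1). Hypotonic lysates were dot-blotted and probed for phospho-PLCγ1 Y783 and total PLCγ1, with quantification by dual-channel infrared imaging.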

Assay [4] has as its system JAK1/3 phosphorylation of its substrate, STAT5, at Y694. Description: JAK1/3 target modulation assay (IL-2 stimulated STAT5 Y694 phosphorylation in PBMC). In kind it is cell-based. Conditions: Primary human peripheral blood mononuclear cells, IL-2 25 ng/mL, read-out: IL2-STAT5 Inh. IC50. An outline of the steps: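 Human PBMCs preincubated with compound for 1 h at 37 °C, then stimulated with IL-2 (25 ng/mL final) for 5 min. Cells were lysed and phospho-STAT5a,b (Y694) measured by MSD electrochemiluminescence immunoassay, single-plex or multiplex with total STAT5a,b.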

Read-outs that look alike come from different tables or passages of the source.

We go through 24 compounds from US12297203B2, “Pyrrolopyrimidine ITK inhibitors” (ACLARIS THERAPEUTICS, INC., priority 2018, dated 2025).

Chain of ITK (Q08881 whole entry): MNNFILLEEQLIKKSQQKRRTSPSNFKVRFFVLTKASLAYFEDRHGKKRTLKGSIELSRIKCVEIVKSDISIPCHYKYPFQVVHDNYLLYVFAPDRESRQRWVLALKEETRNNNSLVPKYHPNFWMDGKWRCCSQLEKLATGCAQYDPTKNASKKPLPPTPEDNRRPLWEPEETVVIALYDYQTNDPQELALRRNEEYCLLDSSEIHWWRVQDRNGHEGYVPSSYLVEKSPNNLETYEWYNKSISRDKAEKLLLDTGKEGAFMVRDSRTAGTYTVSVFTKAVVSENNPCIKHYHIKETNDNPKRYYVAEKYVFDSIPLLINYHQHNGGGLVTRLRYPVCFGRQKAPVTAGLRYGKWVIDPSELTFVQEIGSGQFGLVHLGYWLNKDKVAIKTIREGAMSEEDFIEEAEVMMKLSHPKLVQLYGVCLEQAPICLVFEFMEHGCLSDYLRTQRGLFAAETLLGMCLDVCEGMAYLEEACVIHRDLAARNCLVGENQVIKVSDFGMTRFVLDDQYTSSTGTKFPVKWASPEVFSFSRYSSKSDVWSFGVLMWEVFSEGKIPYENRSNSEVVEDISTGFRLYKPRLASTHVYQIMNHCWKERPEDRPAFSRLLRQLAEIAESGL

In general, IC50 refers to the point on the concentration scale where inhibition reaches its midpoint. Consider `C=CC(=O)N1CCC[C@@H](Nc2ccnc3[nH]cc(C(=O)CCOC)c23)C1` [Example 8, (R)-1-(3-((3-(3-methoxypropanoyl)-1H-pyrrolo[2,3-b]pyridin-4-yl)amino)piperidin-1-yl)prop-2-en-1-one], for which the IC50 in assay [1] was 10 to 100 nM; in assay [2], 10 to 100 nM; in assay [3] (Homo sapiens, Jurkat), more than 1000 nM; in assay [4] (Homo sapiens, PBMC), more than 1000 nM.

As for `C=CC(=O)N1C[C@H](Nc2ncnc3[nH]cc([C@H]4[C@H](C)C4(F)F)c23)CC[C@@H]1C` (single isomer, unassigned) [Example 51], the IC50 in assay [1] is not above 10 nM; in assay [2] it was not above 10 nM; in assay [3] (Homo sapiens, Jurkat), not above 100 nM; in assay [4] (Homo sapiens, PBMC), not above 100 nM.

Regarding `C=CC(=O)N1CCC[C@@H](Nc2ncnc3[nH]cc(C4CCCC4)c23)C1` [Example 28, (R)-1-(3-((5-cyclopentyl-7H-pyrrolo[2,3-d]pyrimidin-4-yl)amino)piperidin-1-yl)prop-2-en-1-one], the half-maximal inhibitory concentration (IC50) in assay [1] is not above 10 nM; in assay [2], not above 10 nM; in assay [3] (Homo sapiens, Jurkat), not above 100 nM; in assay [4] (Homo sapiens, PBMC) it was 100 to 1000 nM.

Regarding `C=CC(=O)N1C[C@@H](Nc2ncnc3[nH]cc([C@@H]4CC4(F)F)c23)CC[C@H]1CC` (single isomer, unassigned) [Example 70], the IC50 is not above 10 nM in assay [1]; not above 10 nM in assay [2]; 100 to 1000 nM in assay [3] (Homo sapiens, Jurkat); 100 to 1000 nM in assay [4] (Homo sapiens, PBMC).

As to `C=CC(=O)N1CCC[C@@H](Nc2ncnc3[nH]cc(CC4CC4)c23)C1` [Example 18, (R)-1-(3-((5-(cyclopropylmethyl)-7H-pyrrolo[2,3-d]pyrimidin-4-yl)amino)piperidin-1-yl)prop-2-en-1-one], the IC50 is not above 10 nM in assay [1]; not above 10 nM in assay [2]; not above 100 nM in assay [3] (Homo sapiens, Jurkat); 100 to 1000 nM in assay [4] (Homo sapiens, PBMC).

For the compound `C=CC(=O)N1C[C@@H](Nc2ncnc3[nH]cc([C@H]4CC4(F)F)c23)CC[C@H]1CC` (single isomer, unassigned) [Example 69], the IC50 was 10 to 100 nM in assay [1]; 10 to 100 nM in assay [2]; 100 to 1000 nM in assay [3] (Homo sapiens, Jurkat); more than 1000 nM in assay [4] (Homo sapiens, PBMC).

`C=CC(=O)N1CCC(Nc2cnc3[nH]cc(C(=O)OCC)c3n2)CC1` [Example 97, ethyl 2-((1-acryloylpiperidin-4-yl)amino)-5H-pyrrolo[2,3-b]pyrazine-7-carboxylate]: the IC50 in assay [1] is more than 100 nM; in assay [2], not above 10 nM; in assay [3] (Homo sapiens, Jurkat), more than 1000 nM; in assay [4] (Homo sapiens, PBMC), 100 to 1000 nM.

Regarding `C=CC(=O)N1C[C@H](Nc2ncnc3[nH]cc(C4CCCC4)c23)CC[C@@H]1C` [Example 30, 1-((2S,5R)-5-((5-cyclopentyl-7H-pyrrolo[2,3-d]pyrimidin-4-yl)amino)-2-methylpiperidin-1-yl)prop-2-en-1-one], the IC50 is not above 10 nM in assay [1]; not above 10 nM in assay [2]; not above 100 nM in assay [3] (Homo sapiens, Jurkat); not above 100 nM in assay [4] (Homo sapiens, PBMC).

On to `C=C(C)C(=O)N1C[C@H](Nc2ncnc3[nH]cc([C@H]4CC4(F)F)c23)CC[C@@H]1C` (single isomer, unassigned) [Example 62], for which the IC50 is more than 100 nM in assay [1]; more than 100 nM in assay [2]; 100 to 1000 nM in assay [3] (Homo sapiens, Jurkat); more than 1000 nM in assay [4] (Homo sapiens, PBMC).

For `C=CC(=O)N1C[C@H](Nc2ccnc3[nH]cc([C@H]4C[C@@H]4COC)c23)CC[C@@H]1C` (single isomer, unassigned) [Example 76], the IC50 in assay [1] is more than 100 nM; in assay [2], 10 to 100 nM; in assay [3] (Homo sapiens, Jurkat) it was more than 1000 nM; in assay [4] (Homo sapiens, PBMC), more than 1000 nM.

Regarding `C=C(C)C(=O)N1C[C@H](Nc2ncnc3[nH]cc([C@@H]4CC4(F)F)c23)CC[C@@H]1C` (single isomer, unassigned) [Example 71], the IC50 is more than 100 nM in assay [1]; more than 100 nM in assay [2]; more than 1000 nM in assay [3] (Homo sapiens, Jurkat); more than 1000 nM in assay [4] (Homo sapiens, PBMC).

Turning to `C=CC(=O)N1C[C@@H](Nc2ncnc3[nH]cc(CC4CC4)c23)CC[C@H]1CC` (single isomer, unassigned) [Example 39], the IC50 in assay [1] was not above 10 nM; in assay [2] it was not above 10 nM; in assay [3] (Homo sapiens, Jurkat), 100 to 1000 nM; in assay [4] (Homo sapiens, PBMC), 100 to 1000 nM.

In the case of `C=CC(=O)N1C[C@H](Nc2ncnc3[nH]cc(C(=O)OC(C)(C)C)c23)CC[C@@H]1C` [Example 31, tert-butyl 4-(((3R,6S)-1-acryloyl-6-methylpiperidin-3-yl)amino)-7H-pyrrolo[2,3-d]pyrimidine-5-carboxylate], the IC50 in assay [1] was not above 10 nM; in assay [2], not above 10 nM; in assay [3] (Homo sapiens, Jurkat), 100 to 1000 nM; in assay [4] (Homo sapiens, PBMC), 100 to 1000 nM.

As for `C=CC(=O)N1CC(Nc2ncnc3[nH]cc(CC4CC4)c23)CCC1C(C)C` (stereo not drawn) [Example 41, 1-(5-((5-(cyclopropylmethyl)-7H-pyrrolo[2,3-d]pyrimidin-4-yl)amino)-2-isopropylpiperidin-1-yl)prop-2-en-1-one], the half-maximal inhibitory concentration (IC50) in assay [1] is 10 to 100 nM; in assay [2], 10 to 100 nM; in assay [3] (Homo sapiens, Jurkat) it was 100 to 1000 nM; in assay [4] (Homo sapiens, PBMC) it was more than 1000 nM.

With `C=CC(=O)N1CCC[C@@H](Nc2ccnc3[nH]cc(C(=O)C4CCCC4)c23)C1` [Example 13, (R)-1-(3-((3-(cyclopentanecarbonyl)-1H-pyrrolo[2,3-b]pyridin-4-yl)amino)piperidin-1-yl)prop-2-en-1-one], the IC50 in assay [1] was not above 10 nM; in assay [2] it was 10 to 100 nM; in assay [3] (Homo sapiens, Jurkat), 100 to 1000 nM; in assay [4] (Homo sapiens, PBMC), 100 to 1000 nM.

For the compound `C=CC(=O)N1CCC[C@@H](Nc2ncnc3[nH]cc([C@H]4C[C@@H]4COC)c23)C1` (single isomer, unassigned) [Example 26], the IC50 in assay [1] was not above 10 nM; in assay [2], not above 10 nM; in assay [3] (Human Jurkat T cells), not above 100 nM; in assay [4] it was 100 to 1000 nM.

Turning to `C=CC(=O)N1CCC(Nc2cnc3[nH]cc(C(=O)C4CC4)c3n2)CC1` [Example 99, 1-(4-((7-(cyclopropanecarbonyl)-5H-pyrrolo[2,3-b]pyrazin-2-yl)amino)piperidin-1-yl)prop-2-en-1-one], the half-maximal inhibitory concentration (IC50) in assay [1] was 10 to 100 nM; in assay [2], not above 10 nM; in assay [3] (Homo sapiens, Jurkat) it was more than 1000 nM; in assay [4] (Homo sapiens, PBMC), not above 100 nM.

`C/C=C/C(=O)N1C[C@H](Nc2ncnc3[nH]cc([C@H]4CC4(F)F)c23)CC[C@@H]1C` (single isomer, unassigned) [Example 57]: the IC50 was more than 100 nM in assay [1]; more than 100 nM in assay [2]; more than 1000 nM in assay [3] (Homo sapiens, Jurkat); more than 1000 nM in assay [4] (Homo sapiens, PBMC).

Regarding `C=CC(=O)N1CCC(Nc2cnc3[nH]cc(C(=O)C4CCC4)c3n2)CC1` [Example 100, 1-(4-((7-(cyclobutanecarbonyl)-5H-pyrrolo[2,3-b]pyrazin-2-yl)amino)piperidin-1-yl)prop-2-en-1-one], the IC50 was 10 to 100 nM in assay [1]; not above 10 nM in assay [2]; 100 to 1000 nM in assay [3] (Homo sapiens, Jurkat); not above 100 nM in assay [4] (Homo sapiens, PBMC).

In the case of `C=CC(=O)N1CCC[C@@H](Nc2ncnc3[nH]cc(C(=O)OCC)c23)C1` [Example 1, ethyl (R)-4-((1-acryloylpiperidin-3-yl)amino)-7H-pyrrolo[2,3-d]pyrimidine-5-carboxylate], the IC50 in assay [1] is not above 10 nM; in assay [2], not above 10 nM; in assay [3] (Homo sapiens, Jurkat) it was more than 1000 nM; in assay [4] (Homo sapiens, PBMC), 100 to 1000 nM.

Regarding `C=CC(=O)N1C[C@H](Nc2ncnc3[nH]cc([C@H]4CC4(F)F)c23)CC[C@@H]1C` (single isomer, unassigned) [Example 49], the IC50 was not above 10 nM in assay [1]; not above 10 nM in assay [2]; 100 to 1000 nM in assay [3] (Homo sapiens, Jurkat); 100 to 1000 nM in assay [4] (Homo sapiens, PBMC).

Consider `C=CC(=O)N1CCC[C@@H](Nc2ccnc3[nH]cc(CC4CC4)c23)C1` [Example 19, (R)-1-(3-((3-(cyclopropylmethyl)-1H-pyrrolo[2,3-b]pyridin-4-yl)amino)piperidin-1-yl)prop-2-en-1-one], for which the IC50 in assay [1] was not above 10 nM; in assay [2] it was not above 10 nM; in assay [3] (Homo sapiens, Jurkat), not above 100 nM; in assay [4] (Homo sapiens, PBMC), 100 to 1000 nM.

As for `C=CC(=O)N1CCC[C@@H](Nc2ncnc3[nH]cc(C(=O)C4CCCC4)c23)C1` [Example 6, (R)-1-(3-((5-(cyclopentanecarbonyl)-7H-pyrrolo[2,3-d]pyrimidin-4-yl)amino)piperidin-1-yl)prop-2-en-1-one], the IC50 in assay [1] was not above 10 nM; in assay [2], 10 to 100 nM; in assay [3] (Homo sapiens, Jurkat), 100 to 1000 nM; in assay [4] (Homo sapiens, PBMC), more than 1000 nM.

Consider `C=CC(=O)N1C[C@H](Nc2ncnc3[nH]cc(C4CC4COC)c23)CC[C@@H]1C` (mixture of isomers) [Example 44, 1-((2S,5R)-5-((5-(2-(methoxymethyl)cyclopropyl)-7H-pyrrolo[2,3-d]pyrimidin-4-yl)amino)-2-methylpiperidin-1-yl)prop-2-en-1-one], for which the IC50 in assay [1] was not above 10 nM; in assay [2], not above 10 nM; in assay [3] (Homo sapiens, Jurkat), not above 100 nM; in assay [4] (Homo sapiens, PBMC) it was 100 to 1000 nM.
